We go through 16 compounds from patent US10988465B2, “CXCR4 inhibitors and uses thereof” (X4 Pharmaceuticals, Inc., priority 2016, dated 2021).

The target in data set [1] is T1, CXCR-4 transfected U87 cell line (U87.CXCR4) (Homo sapiens, UniProt P61073).
T1 construct: expressed in transfected cells; host or cells: U87 (U87.CXCR4)
Put plainly: Intracellular CXCL-12-induced calcium mobilization assay (FLIPR). Format: cell-based. The following applies: U87.CXCR4 cells; CXCL-12 25-50 ng/mL; compound added 15 min before; read-out: IC50 CXCL-12 Ca^2+ flux U87.CXCR4+. How it is done:
Example 36: REGA Screening Assay
Intracellular CXCL-12-Induced Calcium Mobilization Assay
Intracellular calcium mobilization induced by chemokines or chemokine-derived peptides were evaluated using a calcium responsive fluorescent probe and a FLIPR system. The CXCR-4 transfected U87 cell line (U87.CXCR4) cells were seeded in gelatine-coated black-wall 96-well plates at 20,000 cells per well and incubated for 12 hours. Cells were then loaded with the fluorescent calcium probe Fluo-2 acetoxymethyl at 4 μM final concentration in assay buffer (Hanks' balanced salt solution with 20 mM HEPES buffer and 0.2% bovine serum albumin, pH 7.4) for 45 min at 37° C. The intracellular calcium mobilization induced by the CXCL-12 (25-50 ng/mL) was then measured at 37° C. by monitoring the fluorescence as a function of time in all the wells simultaneously using a fluorometric imaging plate reader (FLIPR Tetra, Molecular Devices).

In data set [2] the target is T2, Jurkat cells expressing CXCR4 (Homo sapiens, UniProt P61073).
T2 construct: endogenous in cells; host or cells: Jurkat
T2 sequence (P61073 whole entry): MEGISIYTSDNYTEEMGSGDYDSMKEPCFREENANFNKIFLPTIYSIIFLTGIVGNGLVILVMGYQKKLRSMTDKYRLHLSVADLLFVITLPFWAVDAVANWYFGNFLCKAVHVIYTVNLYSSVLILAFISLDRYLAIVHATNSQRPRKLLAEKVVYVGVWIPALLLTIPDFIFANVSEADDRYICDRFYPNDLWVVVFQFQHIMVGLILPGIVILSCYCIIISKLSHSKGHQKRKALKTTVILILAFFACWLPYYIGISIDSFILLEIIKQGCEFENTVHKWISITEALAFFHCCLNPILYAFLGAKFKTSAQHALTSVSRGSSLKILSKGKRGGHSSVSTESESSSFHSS
Put plainly: Chemokine (CXCL12-AF647) binding inhibition assay. The following applies: CXCL12-AF647 25 ng/mL, read-out: IC50 CXCL-12 binding Jurkat. Here is the method:
Chemokine (CXCL12-AF647) Binding Inhibition Assay
Jurkat cells expressing CXCR4 were washed once with assay buffer (Hanks' balanced salt solution with 20 mM HEPES buffer and 0.2% bovine serum albumin, pH 7.4) and then incubated for 15 min at room temperature with the test compounds diluted in assay buffer at dose-dependent concentrations. Subsequently, CXCL12-AF647 (25 ng/mL) was added to the compound-incubated cells. The cells were incubated for 30 min at room temperature. Thereafter, the cells were washed twice in assay buffer, fixed in 1% paraformaldehyde in PBS, and analyzed on the FL4 channel of a FACSCalibur flow cytometer equipped with a 635-nm red diode laser (Becton Dickinson, San Jose, Calif., USA).
The percentages of inhibition of CXCL12-AF647 binding were calculated according to the formula: [1−((MFI−MFINC)/(MFIPC−MFINC))]×100 where MFI is the mean fluorescence intensity of the cells incubated with CXCL12-AF647 in the presence of the inhibitor, MFINC is the mean fluorescence intensity measured in the negative control (i.e., autofluorescence of unlabeled cells), and MFIPC is the mean fluorescence intensity of the positive control (i.e., cells exposed to CXCL12-AF647 alone).

The nature of a further data set: in vitro. The following applies: human, Caco-2, pH 7.4. Here is the method:
Example 37: Caco-2 Permeability Assay
The goal of this assay was to evaluate the intestinal absorption potential of drug candidates using Caco-2 cell lines.
HBSS buffer with 0.3% DMSO and 5 μM LY: add 150 μL DMSO and 50 μL LY (5 mM) into 50 ml HBSS buffer (pH 7.4).
HBSS buffer with 0.1% DMSO and 5 μM LY: add 50 μL DMSO and 50 μL LY (5 mM) into 50 mL HBSS buffer (pH 7.4).
HBSS buffer with 0.3% DMSO: add 150 μL DMSO into 50 ml HBSS buffer (pH 7.4).
HBSS buffer with 0.1% DMSO: add 50 μL DMSO into 50 ml HBSS buffer (pH 7.4).
Prepare HBSS buffer with 0.4% DMSO: add 200 μL DMSO into 50 ml HBSS buffer (pH 7.4).
Prepare HBSS buffer with 0.4% DMSO and 5 μM LY: add 200 μL DMSO and 50 μL LY (5 mM) into 50 ml HBSS buffer (pH 7.4).
4. Measure TEER Take cell culture plate out of incubator, wash the cell monolayers with HBSS buffer, and then measure TEER values at Rm temperature. 5. Centrifuge Centrifuge the compound solution (from step 3) at 4000 rpm for 5 min before loading to donor chambers. 6. Dosing Add solution based on the volumes listed in the following table (make sure to take extra 100 μL of donor sample for T0 as Backup).
7. Apical LYT0 samples To determine LY concentration in the apical chember, take 100 μL sample from apical chambers into an opaque plate for LYT0. 8. Prewarm Prewarm apical and basolateral plates at 37° C. for about 5 min, then begin transport by placing the apical plate onto basolateral plate. 9. Incubation Keep the plates in incubator at 37° C. for 90 min. 10. Standard Curve preparation
11. Transport termination Separate the apical plate from the basolateral plate after 90-min incubation.
Receiver sample: 60 μL of receiver sample+60 μL ACN with IS (Osalmid or Imipramine)
Study details: Test concentration 10 μM
Test systems: Caco-2/HBSS solution
Incubation conditions: 0, 90 min at 37° C.
Sample size: Duplicates (n=2)
Bioanalytical method: LC-MS/MS
For Millicell-24 Cell Culture Plates: surface area of the membrane=0.7 cm^2, VA=0.8 mL (A-to-B) or 0.4 mL (B-to-A)
1. Papp values were calculated based on calculated concentrations.
The compound numbers correspond to the compound numbers in Table 1.

Bounds are passed on as bounds.

T1 sequence (P61073 whole entry): as above

With `Cc1ccnc([C@@H]2CCC[C@H](c3nc4cccc(N5CCN(C)CC5)c4[nH]3)N2C)c1Cl` [I-116], the IC50 in data set [1] lay in the range of 100 to 1000 nM. Also, the IC50 in data set [2] lay in the range of 0.01 to 100 nM. Further, in “in vitro”, the Papp A→B at 90 min, 10 μM is 10 to 30 ×10⁻⁶ cm/s; the Papp B→A at 90 min, 10 μM fell in the range of 10 to 30 ×10⁻⁶ cm/s; the efflux ratio at 90 min, 10 μM fell in the range of 0.1 to 10.
Regarding `Cc1cccnc1[C@@H]1CCC[C@H](c2nc3cccc(N4CC5CC4CN5C)c3[nH]2)N1C` (some centres unmarked) [I-110], in data set [1], the concentration for half-maximal inhibition (IC50) lay in the range of 100 to 1000 nM. The IC50 in data set [2] was 0.01 to 100 nM. In addition, in the data set “in vitro”, the Papp A→B at 90 min, 10 μM was 0.1 to 10 ×10⁻⁶ cm/s; the apparent permeability from basolateral to apical (Papp B→A) at 90 min, 10 μM lay within 10 to 30 ×10⁻⁶ cm/s; the efflux ratio at 90 min, 10 μM lay within 0.1 to 10.
For `Cc1cccnc1[C@@H]1CCC[C@H](c2nc3ccccc3n2CCCN2CCC(F)(F)CC2)N1C` [I-30, 1-(3-(4,4-difluoropiperidin-1-yl)propyl)-2-((2R,6S)-1-methyl-6-(3-methylpyridin-2-yl)piperidin-2-yl)-1H-benzo[d]imidazole], the IC50 in data set [1] was in the range of 0.01 to 100 nM. For the same compound, the IC50 in data set [2] lay in the range of 0.01 to 100 nM. For the same compound, in “in vitro”, the Papp A→B at 90 min, 10 μM is 0.1 to 10 ×10⁻⁶ cm/s; the Papp B→A at 90 min, 10 μM lay within 0.1 to 10 ×10⁻⁶ cm/s; the efflux ratio at 90 min, 10 μM lay in the range of 0.1 to 10.
On to `CN1CCN(c2cccc3nc([C@H]4CCC[C@@H](c5ncccc5Cl)N4)n(C)c23)CC1` [I-124], for which the IC50 in data set [1] and in data set [2] was 0.01 to 100 nM each time.
For `Cc1cccnc1[C@@H]1CCC[C@H](c2nc3ccccc3n2CCc2ccccn2)N1C` [I-8, 2-((2R,6S)-1-methyl-6-(3-methylpyridin-2-yl)piperidin-2-yl)-1-(2-(pyridin-2-yl)ethyl)-1H-benzo[d]imidazole], the half-maximal inhibitory concentration (IC50) in data set [1] was at least 1000 nM; in data set [2], 100 to 1000 nM.
For `Cc1cccnc1[C@@H]1CCC[C@H](c2nc3ccccc3n2CCCCN)N1C` [I-4, 4-(2-((2R,6S)-1-methyl-6-(3-methylpyridin-2-yl)piperidin-2-yl)-1H-benzo[d]imidazol-1-yl)butan-1-amine], the IC50 in data set [1] and in data set [2] was 0.01 to 100 nM each time.
Turning to `Cc1cccnc1[C@@H]1CCC[C@H](c2nc3ccccc3n2CCCO)N1C` [I-20, 3-(2-((2R,6S)-1-methyl-6-(3-methylpyridin-2-yl)piperidin-2-yl)-1H-benzo[d]imidazol-1-yl)propan-1-ol], the IC50 in data set [1] fell in the range of 100 to 1000 nM; in data set [2], 0.01 to 100 nM.
Take `Cc1cccc(F)c1[C@@H]1CCC[C@H](c2nc3cccc(N4CCN(C)CC4)c3[nH]2)N1C` [I-138]: the IC50 in data set [1] and in data set [2] was at least 1000 nM throughout.
Take `CCN1CCN(c2cccc3nc([C@H]4CCC[C@@H](c5ncccc5C(F)(F)F)N4C)[nH]c23)CC1` (relative stereo) [I-59]: the IC50 in data set [1] is at least 1000 nM; in data set [2], 0.01 to 100 nM.
In the case of `Cc1cccnc1[C@@H]1CCC[C@H](c2nc3cccc(Oc4cccnc4)c3[nH]2)N1C` [I-77], the IC50 in data set [1] is at least 1000 nM; in data set [2], 100 to 1000 nM.
`Cc1cccnc1[C@@H]1CCC[C@H](c2nc3cccc(Oc4ccncc4)c3[nH]2)N1C` [I-78]: the IC50 in data set [1] and in data set [2] was at least 1000 nM each time.
In the case of `COCCCn1c([C@H]2CCC[C@@H](c3ncccc3C)N2C)nc2ccccc21` [I-157], the IC50 in data set [1] was at least 1000 nM; in data set [2] it was 0.01 to 100 nM.
For the compound `COCCc1ccc(OCC(O)CNC(C)C)cc1` (centres unmarked) [Metoprolol, reference compound], in the data set “in vitro”, the apparent permeability from apical to basolateral (Papp A→B) at 90 min, 10 μM is over 10 ×10⁻⁶ cm/s and the Papp B→A at 90 min, 10 μM is over 10 ×10⁻⁶ cm/s.
Regarding `Cc1cccnc1[C@@H]1CCC[C@H](c2nc3ccccc3n2CCCO)N1` [I-156], the values for the concentration for half-maximal inhibition (IC50) in data set [1] and in data set [2] were at least 1000 nM and 100 to 1000 nM, respectively.
The corresponding values for `Cc1cccnc1[C@@H]1CCC[C@H](c2nc3ccccc3n2CCn2ccnc2)N1C` [I-6, 1-(2-(1H-imidazol-1-yl)ethyl)-2-((2R,6S)-1-methyl-6-(3-methylpyridin-2-yl)piperidin-2-yl)-1H-benzo[d]imidazole] are 100 to 1000 nM and 0.01 to 100 nM.
Taken in the same sequence, the figures for `Cc1cccnc1[C@@H]1CCCC(c2nccn2CCCc2ccccn2)N1` (stereo in doubt) [I-178] were at least 1000 nM and 100 to 1000 nM.
